This note sets out measurements from ChEMBL document CHEMBL3396966, “In vitro studies of antimicrobial activity of Gly-His-Lys conjugates as potential and promising candidates for therapeutics in skin and tissue infections” (2015).

For assay [1], the system named is Staphylococcus aureus. As to the kind of experiment: Antimicrobial activity against Staphylococcus aureus PCM 2602 (ATCC 6538) after 16 to 20 hrs by broth micro-dilution method. In kind it is functional. On the technique in general: In broth dilution the organism is exposed to a series of concentrations in liquid medium.
The test system of assay [2] is Escherichia coli. Kind of assay: Antimicrobial activity against Escherichia coli DSM11250 (PCM2560, NTCC 10538) after 16 to 20 hrs by broth micro-dilution method. In kind it is functional.
Assay [3] has as its system Staphylococcus aureus. Kind of assay: Antimicrobial activity against Staphylococcus aureus PCM 2054 (ATCC 25923) after 16 to 20 hrs by broth micro-dilution method. In kind it is functional.
The test system of assay [4] is Escherichia coli. As to the kind of experiment: Antimicrobial activity against Escherichia coli PCM 2561 (ATCC 8739, DSM 1576) after 16 to 20 hrs by broth micro-dilution method. In kind it is functional.
Assay [5] has as its system Escherichia coli. As to the kind of experiment: Antimicrobial activity against Escherichia coli after 16 to 20 hrs by broth micro-dilution method. It counts as functional, organism-based.
In assay [6] the test system is Pseudomonas aeruginosa. As to the kind of experiment: Bacteriostatic activity against Pseudomonas aeruginosa PCM 2562 (ATCC9027) after 16 to 20 hrs by broth micro-dilution method. It counts as functional, organism-based.
The subject of assay [7] is Staphylococcus aureus. Kind of assay: Antimicrobial activity against Staphylococcus aureus after 16 to 20 hrs by broth micro-dilution method. It counts as functional, organism-based.
Assay [8] has as its system Staphylococcus aureus. Kind of assay: Bacteriostatic activity against Staphylococcus aureus after 16 to 20 hrs by broth micro-dilution method. In kind it is functional, organism-based.
In assay [9] the test system is Escherichia coli. Kind of assay: Bactericidal activity against Escherichia coli up to 18 hrs by time-kill assay. It counts as functional, organism-based.
Assay [10] has as its system Staphylococcus aureus. As to the kind of experiment: Bactericidal activity against Staphylococcus aureus at 8 times MIC up to 18 hrs by time-kill assay. In kind it is functional, organism-based.
In assay [11] the test system is Pseudomonas aeruginosa. Kind of assay: Antimicrobial activity against Pseudomonas aeruginosa PCM 2562 (ATCC9027) after 16 to 20 hrs by broth micro-dilution method. It counts as functional.
The subject of assay [12] is Staphylococcus aureus. Kind of assay: Bactericidal activity against Staphylococcus aureus up to 4 times MIC up to 18 hrs by time-kill assay. In kind it is functional, organism-based.
Assay [13] has as its system Staphylococcus aureus. Kind of assay: Bactericidal activity against Staphylococcus aureus at 4 times MIC up to 18 hrs by time-kill assay.
For assay [14], the system named is Pseudomonas aeruginosa. Kind of assay: Bactericidal activity against Pseudomonas aeruginosa PCM 2562 (ATCC9027) at 4 times MIC up to 18 hrs by broth micro-dilution method. It counts as functional, organism-based.
Assay [15] relates to Candida albicans. As to the kind of experiment: Fungicidal activity against Candida albicans at MIC by time-kill assay. In kind it is functional, organism-based.
Assay [16] has as its system Staphylococcus aureus. Kind of assay: Bactericidal activity against Staphylococcus aureus at 100 ug/ml up to 18 hrs by time-kill assay. It counts as functional, organism-based.
Assay [17] deals with Candida albicans. As to the kind of experiment: Fungicidal activity against Candida albicans at 2 times MIC by time-kill assay. In kind it is functional, organism-based.
Assay [18] deals with Staphylococcus aureus. As to the kind of experiment: Bactericidal activity against Staphylococcus aureus at 6 times MIC up to 18 hrs by time-kill assay. In kind it is functional, organism-based.
Assay [19] relates to Staphylococcus aureus. Kind of assay: Bactericidal activity against Staphylococcus aureus at 4 times MIC up to 18 hrs by time-kill assay. In kind it is functional, organism-based.
[20] abbreviates: Staphylococcus aureus, PCM 2602 (ATCC 6538).
Setting [21] is: Escherichia coli, DSM11250 (PCM2560, NTCC 10538).
The mark [22] stands for this setting: Staphylococcus aureus, PCM 2054 (ATCC 25923).
Setting [23] is: Escherichia coli, PCM 2561 (ATCC 8739, DSM 1576).
Setting [24] is: Pseudomonas aeruginosa, PCM 2562 (ATCC9027).

In brackets after ≈: the same amount, converted by molar mass. Activity calls are given as the source filed them. Non-standard residues stand in square brackets, D forms with d. Residues, ends and D or L forms follow the SMILES beside them. ξ: configuration not given here. *: point of attachment. Palmitoyl = CCCCCCCCCCCCCCCC(=O)*; Lauroyl = CCCCCCCCCCCC(=O)*; ξHyp = O=C(O)C1CC(O)CN1

On to `NC[C@H]1O[C@H](O[C@H]2[C@H](O)[C@@H](O[C@H]3O[C@H](CO)[C@@H](O)[C@H](N)[C@H]3O)[C@H](N)C[C@@H]2N)[C@H](O)[C@@H](O)[C@@H]1O` [KANAMYCIN], for which the MBC50 in the assay on Staphylococcus aureus [1] worked out at 3.9 µg/mL (≈ 8.05 µM); in the assay on Escherichia coli [2], 15.6 µg/mL (≈ 32.2 µM); with Staphylococcus aureus [3] it was 3.9 µg/mL (≈ 8.05 µM); against Escherichia coli [4] it was 15.6 µg/mL (≈ 32.2 µM). In addition, the MBC90 with Staphylococcus aureus [1] worked out at 7.8 µg/mL (≈ 16.1 µM); in the assay with Escherichia coli [2], 31.3 µg/mL (≈ 64.6 µM); with Staphylococcus aureus [3] it was 7.8 µg/mL (≈ 16.1 µM); against Escherichia coli [4], 31.3 µg/mL (≈ 64.6 µM). In addition, the MBC (commonly the smallest concentration meeting the test's criterion for killing) against Staphylococcus aureus [1] (setting [20]) was determined as 11.7 µg/mL (≈ 24.1 µM); in the assay with Escherichia coli [2] (setting [21]), 7.8 µg/mL (≈ 16.1 µM); with Staphylococcus aureus [3] (setting [22]), 11.7 µg/mL (≈ 24.1 µM); against Escherichia coli [4] (setting [23]), 7.8 µg/mL (≈ 16.1 µM). For the same compound, the MIC (as a rule, the lowest concentration found to suppress growth) amounted to 2.9 µg/mL (≈ 5.99 µM) in the assay on Staphylococcus aureus [1] (setting [20]), 3.9 µg/mL (≈ 8.05 µM) against Escherichia coli [2] (setting [21]), 2.9 µg/mL (≈ 5.99 µM) in the assay with Staphylococcus aureus [3] (setting [22]) and 3.9 µg/mL (≈ 8.05 µM) in the assay on Escherichia coli [4] (setting [23]). Besides, the MIC50 (in general, the lowest concentration that inhibits either 50% of growth or 50% of the strains tested, depending on the study) against Staphylococcus aureus [1] (setting [20]) was found to be 2.9 µg/mL (≈ 5.99 µM); against Escherichia coli [2] (setting [21]), 7.8 µg/mL (≈ 16.1 µM); against Staphylococcus aureus [3] (setting [22]), 2.9 µg/mL (≈ 5.99 µM); against Escherichia coli [4] (setting [23]) it was 7.8 µg/mL (≈ 16.1 µM). For the same compound, the MIC90 – broadly, an inhibitory concentration at the 90% level, which refers to growth in some studies and to a panel of isolates in others – in the assay with Staphylococcus aureus [1] (setting [20]) turned out to be 5.8 µg/mL (≈ 12 µM); in the assay on Escherichia coli [2] (setting [21]), 15.6 µg/mL (≈ 32.2 µM); against Staphylococcus aureus [3] (setting [22]) it was 5.8 µg/mL (≈ 12 µM); against Escherichia coli [4] (setting [23]) it was 15.6 µg/mL (≈ 32.2 µM).

As to `CC(=O)NCC(=O)N1CC(O)CC1C(=O)N[C@H](CCCCN)C(=O)O` (stereo not given in full), in the assay with Escherichia coli [5], the result was Active.

As to `NCCCC[C@H](NC(=O)C1CC(O)CN1C(=O)CN)C(=O)O` (stereo not given in full) (H-Gly-[ξHyp]-Lys-OH), the outcome with Pseudomonas aeruginosa [6], in the assay on Staphylococcus aureus [7], with Escherichia coli [5] and in the assay on Staphylococcus aureus [8] was Active.

Regarding `CSCC[C@H](NC(=O)CN)C(=O)N[C@@H](CCCCN)C(=O)O` (H-Gly-Met-Lys-OH), the outcome with Escherichia coli [9] was Active. The outcome in the assay on Escherichia coli [5] was inactive.

In the case of `CCCCCCCCCCCC(=O)NCC(=O)N1CC(O)CC1C(=O)N[C@@H](CCSC)C(=O)N[C@@H](CCCCN)C(=O)O` (stereo not given in full) (Lauroyl-G[ξHyp]MK-OH), in the assay with Staphylococcus aureus [10], the outcome was Active.

As to `CN(C)[C@@H]1C(O)=C(C(N)=O)C(=O)[C@@]2(O)C(O)=C3C(=O)c4c(O)cccc4[C@@](C)(O)[C@H]3C[C@@H]12` [TETRACYCLINE], in the assay with Pseudomonas aeruginosa [11], the MBC50 worked out at 31.3 µg/mL (≈ 70.4 µM) and the MBC90 was found to be 62.5 µg/mL (≈ 141 µM). For the same compound, in the assay with Pseudomonas aeruginosa [11] (setting [24]), the MBC was 31.3 µg/mL (≈ 70.4 µM), 3.9 µg/mL (≈ 8.78 µM) was the least that counted as inhibitory (MIC), the MIC50 is 3.91 µg/mL (≈ 8.8 µM) and the MIC90 came to 7.81 µg/mL (≈ 17.6 µM).

Turning to `CCCCCCCCCCCC(=O)NCC(=O)N1CC(O)CC1C(=O)N[C@H](CCCCN)C(=O)O` (stereo not given in full), the outcome in the assay on Escherichia coli [9], with Staphylococcus aureus [12], in the assay on Escherichia coli [5] and in the assay with Staphylococcus aureus [13] was Active.

Consider `CCCCCCCCCCCCCCCCCC(=O)NCC(=O)N1CC(O)CC1C(=O)N[C@H](CCCCN)C(=O)O` (stereo not given in full), for which, in the assay on Escherichia coli [9], the result was Active.

As to `CCCCCCCCCCCCCCCC(=O)NCC(=O)N1CC(O)CC1C(=O)N[C@@H](CCCCN)C(N)=O` (stereo not given in full) (Palmitoyl-Gly-[ξHyp]-Lys-NH2), the MBC50 with Staphylococcus aureus [1] came to 93.7 µg/mL (≈ 169 µM); with Pseudomonas aeruginosa [11] it was 1500 µg/mL (≈ 2710 µM); with Staphylococcus aureus [3], 93.7 µg/mL (≈ 169 µM). The values for the MBC90 with Staphylococcus aureus [1], in the assay with Pseudomonas aeruginosa [11] and against Staphylococcus aureus [3] were 125 µg/mL (≈ 226 µM), 2000 µg/mL (≈ 3610 µM) and 125 µg/mL (≈ 226 µM), respectively. Further, the MIC50 in the assay with Staphylococcus aureus [1] (setting [20]) stood at 31.3 µg/mL (≈ 56.5 µM); against Pseudomonas aeruginosa [11] (setting [24]), 375 µg/mL (≈ 677 µM); in the assay with Escherichia coli [2] (setting [21]) it was 31.3 µg/mL (≈ 56.5 µM); against Staphylococcus aureus [3] (setting [22]), 31.3 µg/mL (≈ 56.5 µM); in the assay with Escherichia coli [4] (setting [23]), 62.5 µg/mL (≈ 113 µM). The MIC90 against Staphylococcus aureus [1] (setting [20]) was found to be 31.3 µg/mL (≈ 56.5 µM); in the assay with Pseudomonas aeruginosa [11] (setting [24]) it was 500 µg/mL (≈ 903 µM); with Escherichia coli [2] (setting [21]) it was 62.5 µg/mL (≈ 113 µM); in the assay with Staphylococcus aureus [3] (setting [22]) it was 62.5 µg/mL (≈ 113 µM); in the assay with Escherichia coli [4] (setting [23]), 125 µg/mL (≈ 226 µM). Moreover, the result in the assay with Pseudomonas aeruginosa [14], in the assay on Candida albicans [15], in the assay on Staphylococcus aureus [16], with Candida albicans [17], in the assay on Staphylococcus aureus [18] and in the assay on Staphylococcus aureus [19] was Active.
